# Measured values from patent US20250281629A1, “COMPOSITIONS AND METHODS FOR ANTI-PHOSPHOCHOLINE ACTIVE IMMUNOTHERAPY” (Duke University, priority 2022, published 2025).
# Where no end group is shown, it is not given here.
# Key:
# [1] = Zeta potential of nanofibers; assay type: physicochemical; details: 1 mM conjugate coassembled with 1 mM Q11; 0.2 mM in 1×PBS, 25° C.
# Protocol: Zeta Potential. Nanofibers were diluted to 0.2 mM in 1×PBS and zeta potential measurements were conducted at 25° C. using an Anton Paar Litesizer 500.
# [2] = system: mouse anti-PC IgM monoclonal antibody (Clone: BH8); experiment: ELISA for measuring nanofiber epitope reactivity; assay type: binding; details: nanofibers coated at 0.2 mM; PC-BSA positive control
# Protocol: ELISA for Measuring Nanofiber Epitope Reactivity. The reactivity of PC conjugation methods was determined via binding of a mouse anti-PC IgM monoclonal antibody (Clone: BH8) (Sigma, MABF2084) to nanofibers. Nanofibers were diluted to 0.2 mM and coated onto 96-well plates at 4° C. overnight. PC-BSA (Biosearch Technologies, PC-1011-10) was coated at 20 μg/mL in 1×PBS overnight as a positive control, and PBS was used as a negative control. The next day, the plates were washed using 1×PBS with 0.05% Tween 20 (1×PBST) and then blocked with Superblock blocking buffer solution (Thermo Fisher, 37515) three times. This was followed by the addition anti-PC IgM which was serially diluted in 1% BSA in 1×PBST by 5-fold steps beginning from 1:100 (5 μg/mL) and allowed to incubate for 2 h at room temperature. Anti-PC IgM bound to nanofibers was then detected with HRP-conjugated goat anti-mouse IgM (Southern Biotech, 1021-05) and the absorbance values at 450 nm were measured.
# B1a cells (CD19+CD5+) = experiment: Nanofiber uptake in i.p. lavage cells, flow cytometry: B1a cells; assay type: in vivo, mouse; details: 4 hours after i.p. injection
# Protocol: (§1) Nanofiber Uptake and Evaluation. The cell types present and their propensity to uptake nanofibers in the i.p. space was tested by injecting mice i.p. with 100 μL of 2 mM TAMRA-labeled fluorescent nanofibers. 4 hours later, mice were euthanized and i.p. lavage was conducted via the injection of 2 mL of cold 1×PBS into the peritoneal cavity and massaging the abdomen for 30 seconds. The solution was then carefully extracted from the i.p. space and the cells were isolated followed by rinsing with ice cold flow buffer (2% heat-inactivated FBS in 1×PBS). The cells present were treated with mouse BD Fc Block (Clone: 2.4G2) (BD Biosciences, 553142) in flow buffer on ice for 30 min and then washed and stained with antibodies against the following markers: CD5-APC (Clone: 53-7.3) (BioLegend, 100626), F4/80-PerCP/Cy5.5 (Clone: BM8) (BioLegend, 123128), CD19-APC/Cy7 (Clone: 6D5) (BioLegend, 115530), CD11c-PE/Cy7 (Clone: N418) (BioLegend, 117318), and CD86-BV605 (Clone: GL1) (BD Biosciences, 2272591) in flow buffer for 30 min on ice. TAMRA-fluorescence as an indication of nanofiber uptake was measured on the PE channel. Cells were then washed in flow buffer and stained with DAPI. Flow cytometry was conducted on a BD FACSCanto II cytometer and the results were analyzed using FlowJo software.
# macrophages (F4/80+) = experiment: Nanofiber uptake in i.p. lavage cells, flow cytometry: macrophages; assay type: in vivo, mouse; details: 4 hours after i.p. injection of TAMRA-labeled nanofibers
# Protocol: as §1
# C57BL/6 mice = experiment: Serum anti-PC antibody responses of immunized mice via ELISA (PC-BSA coated); assay type: in vivo, mouse; details: 10% Cys4-Q11 added to PC-Q11 or PCM-Q11 nanofibers; i.p.
# Protocol: Mice and Immunizations. Female C57BL/6 mice (Envigo) age 6-10 weeks were used to initiate experiments except for the Il10^−/− colitis study where female B6.129P2-Il10^tm1Cgn/J (The Jackson Laboratory) mice age 5-7 weeks were used. While female mice were used for most experiments, age-matched male C57BL/6 mice (Envigo) were used in a one cycle acute DSS colitis model to confirm efficacy across sexes. Mice were housed at Duke University. All experimental procedures were performed on protocols (A264-18-11 and A199-21-09) approved by the Duke University Institutional Animal Care and Use Committee (IACUC). For subcutaneous immunizations, anesthetized mice were injected once behind each shoulder with 50 μL of 2 mM peptide nanofiber solution or 1×PBS. For intraperitoneal immunizations, mice were injected with 100 μL of 2 mM peptide nanofiber solution or 1×PBS. Nanofiber immunizations with adjuvant contained 10 μg CpG (ODN 1826, IAX-200-002-3001, Innaxon). For injections of only CpG, 10 μg of CpG in 100 μL 1×PBS was used. Mice were typically given three immunizations, with the specific boosting schedules stated in each figure caption, usually at weeks 0, 2, and 4, as this was determined to produce robust antibody responses in a short time frame.
# Detection of Anti-PC Antibody Responses via ELISA. Anti-PC antibody responses in serum collected from the submandibular vein in mice were measured using ELISA. Briefly, plates were coated with 20 μg/mL PC-BSA (Biosearch Technologies, PC-1011-10) in 1×PBS or just 1×PBS at 4° C. overnight. The next day, the plates were washed using 1×PBST (1×PBS with 0.05% Tween 20) and then blocked three times with Superblock blocking buffer solution (Thermo Fisher, 37515). Serum diluted from 1:10^2 to 1:10^5 in 1% BSA in 1×PBST was the added to the plate and allowed to incubate for 2 h at room temperature. Anti-PC IgG was detected using HRP-conjugated Fcγ fragment-specific goat anti-mouse IgG (Jackson Immuno Research, 15-035-071). IgG subclasses and IgM anti-PC antibodies were detected using Southern Biotech HRP-conjugated goat anti-mouse antibodies (IgG1, IgG2b, IgG2c, IgG3, & IgM: 5300-05B). Area under the curve (AUC) measurements were calculated using background-subtracted absorbance values at dilutions from 1:10^2 to 1:10^5. Antibody titers were defined using an absorbance cutoff above background of 0.2 OD, where titer 2 represents an OD value greater than 0.2 at 1:10^2 dilution and so on up to titer 5 at 1:10^5 dilution.
Substance,zeta potential (surface charge) of nanofibers [1],binding of anti-PC mAb to nanofibers [2],CD86 activation marker on TAMRA+ B1a cells vs non-B1a cells (B1a cells (CD19+CD5+)),macrophages staining positively for nanofibers (macrophages (F4/80+)),effect of extra cysteines on anti-PC antibody responses (C57BL/6 mice)
"C5H14NO4P-SGSG-QQKFQFQFEQQ-NH2 (C5H14NO4P-SGSGQQKFQFQFEQQ-NH2) [pa-PC-Q11, phosphoramidate-linked PC-Q11]",positively charged,not,–,–,–
AC-QQKFQFQFEQQ-NH2 (Ac-QQKFQFQFEQQ-NH2) [Q11],–,not,not seen,almost all macrophages staining positively for nanofibers,–
CCCCSGSG-QQKFQFQFEQQ-NH2 (CCCCSGSGQQKFQFQFEQQ-NH2; cysteine pairing not given here) [Cys4-Q11],–,–,–,–,did not significantly enhance or reduce the anti-PC antibody responses
